ChEMBL document CHEMBL4340506, “Inhibition of a viral prolyl hydroxylase” (Bioorg Med Chem, 2019)
Calls of active or inactive are those of the source. The rule behind the calls is not given here. Where a SMILES comes first, the peptide text is derived from it. [ ]: non-standard residue; d: D form. Hyp = O=C(O)[C@@H]1C[C@@H](O)CN1

Legend:
Prolyl 4-hydroxylase = target: T1, Prolyl 4-hydroxylase (Paramecium bursaria Chlorella virus 1, UniProt Q84406); assay: Inhibition of N-terminal His6-tagged recombinant Paramecium bursaria chlorella virus 1 CPH expressed in Escherichia coli Rosetta 2 (DE3) cells pre-incubated for 5 mins before 2OG as substrate and Fe2 as co-factor addition in presence of L-ascorbate and measured after 5 mins MALDI TOF MS analysis
T1 sequence (Q84406 whole entry): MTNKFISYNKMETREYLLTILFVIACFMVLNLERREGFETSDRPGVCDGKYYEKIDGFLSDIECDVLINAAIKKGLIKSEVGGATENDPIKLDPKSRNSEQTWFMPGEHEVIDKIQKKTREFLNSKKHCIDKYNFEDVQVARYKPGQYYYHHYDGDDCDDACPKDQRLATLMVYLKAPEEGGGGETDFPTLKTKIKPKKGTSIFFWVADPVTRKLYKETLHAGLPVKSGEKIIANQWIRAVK

Egl nine homolog 1 = Egl nine homolog 1 (Homo sapiens, UniProt Q9GZT9); assay: Inhibition of recombinant human PHD2 by alphascreen assay
[1] = target: T2, Prolyl 3-hydroxylase OGFOD1 (Homo sapiens, UniProt Q8N543); assay: Inhibition of recombinant human OGFOD1 using 2OG as substrate and Fe2 as co-factor assessed as hydroxylation incubated for 15 mins in presence of L-ascorbate by MALDI-TOF MS analysis
T2 sequence (Q8N543 whole entry): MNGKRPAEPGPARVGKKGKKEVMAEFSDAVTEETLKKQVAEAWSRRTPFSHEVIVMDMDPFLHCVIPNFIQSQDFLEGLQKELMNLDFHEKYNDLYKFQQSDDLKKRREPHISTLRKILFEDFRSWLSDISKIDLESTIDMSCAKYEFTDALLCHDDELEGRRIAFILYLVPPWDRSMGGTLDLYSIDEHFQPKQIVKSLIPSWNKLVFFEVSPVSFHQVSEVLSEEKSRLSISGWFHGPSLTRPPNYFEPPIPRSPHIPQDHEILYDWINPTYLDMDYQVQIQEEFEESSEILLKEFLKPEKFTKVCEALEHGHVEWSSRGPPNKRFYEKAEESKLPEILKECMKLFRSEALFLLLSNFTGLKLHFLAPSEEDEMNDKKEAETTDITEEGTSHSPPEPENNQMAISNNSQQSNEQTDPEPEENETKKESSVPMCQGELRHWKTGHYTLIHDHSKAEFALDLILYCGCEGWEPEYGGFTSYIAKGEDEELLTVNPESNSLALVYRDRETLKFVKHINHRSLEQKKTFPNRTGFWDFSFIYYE

[2] = target: T3, Prolyl 4-hydroxylase (Paramecium bursaria Chlorella virus 1) (UniProt Q84406); assay: (§1) Substrate activity at N-terminal His6-tagged recombinant Paramecium bursaria chlorella virus 1 CPH expressed in Escherichia coli Rosetta 2 (DE3) cells assessed as succinate production at 500 uM incubated for 60 s in presence of 2OG and L-ascorbate and using Fe2 as cofactor by 1H NMR spectroscopy
T3 sequence (whole entry): T1 sequence (Q84406 whole entry)

[3] = target: T3, Prolyl 4-hydroxylase (Paramecium bursaria Chlorella virus 1); assay: as §1, with “2OG and in absence of L-ascorbate and” for “2OG and L-ascorbate and”
[4] = target: T3, Prolyl 4-hydroxylase (Paramecium bursaria Chlorella virus 1); assay: Substrate activity at N-terminal His6-tagged recombinant Paramecium bursaria chlorella virus 1 CPH expressed in Escherichia coli Rosetta 2 (DE3) cells assessed as substrate hydroxylation at 100 uM incubated for 16 hrs in presence of 2OG by MALDI TOF MS analysis
[5] = target: T3, Prolyl 4-hydroxylase (Paramecium bursaria Chlorella virus 1); assay: Substrate activity at N-terminal His6-tagged recombinant Paramecium bursaria chlorella virus 1 CPH expressed in Escherichia coli Rosetta 2 (DE3) cells assessed as substrate hydroxylation up to 1 mM incubated for 16 hrs in presence of 2OG by MALDI TOF MS analysis

Egl nine homolog 1, sequence (Q9GZT9 whole entry): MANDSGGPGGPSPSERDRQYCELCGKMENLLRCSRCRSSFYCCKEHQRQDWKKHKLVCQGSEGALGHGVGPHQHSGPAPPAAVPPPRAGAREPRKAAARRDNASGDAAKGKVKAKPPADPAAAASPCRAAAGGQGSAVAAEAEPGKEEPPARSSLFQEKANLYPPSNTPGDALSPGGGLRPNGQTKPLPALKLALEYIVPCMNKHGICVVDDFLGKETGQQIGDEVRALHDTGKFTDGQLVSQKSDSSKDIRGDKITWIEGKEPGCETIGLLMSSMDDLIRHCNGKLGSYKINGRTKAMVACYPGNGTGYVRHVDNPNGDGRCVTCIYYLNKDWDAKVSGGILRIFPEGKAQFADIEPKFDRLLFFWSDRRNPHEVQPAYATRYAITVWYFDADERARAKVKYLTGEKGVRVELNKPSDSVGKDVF

SMILES	IC50 (Prolyl 4-hydroxylase)	Activity [4]	other results
O=C(O)CNC(=O)c1c(O)c2ccccc2n(Cc2ccccc2)c1=O	8.5 µM	–	IC50 (Egl nine homolog 1): 0.022 µM
CC(C)(C)OC(=O)c1ccc(-n2[nH]cc(-n3ccnn3)c2=O)nc1	2.5 µM	–	IC50 [1]: 5.1 µM
O=C(O)CNC(=O)c1c(O)n(C2CCCCC2)c(=O)n(C2CCCCC2)c1=O	13.4 µM	–	Ki (Prolyl 4-hydroxylase): 7.65 µM; IC50 [1]: 2.1 µM
C[C@H](NC(=O)[C@@H]1CCCN1)C(=O)N1CCC[C@H]1C(=O)N[C@@H](CCCCN)C(=O)N1C[C@H](O)C[C@H]1C(=O)N[C@@H](C)C(=O)N1CCC[C@H]1C(=O)N[C@@H](CCCCN)C(=O)O (H-PAPK[Hyp]APK-OH)	–	–	Activity [2]: Active; Activity [3]: Active
CC(C)C[C@H](NC(=O)[C@H](CCCCN)NC(=O)[C@@H]1C[C@@H](O)CN1C(=O)[C@H](C)NC(=O)[C@@H]1CCCN1)C(=O)N[C@@H](C)C(=O)N1CCC[C@H]1C(=O)N[C@@H](CCCCN)C(=O)O (H-PA[Hyp]KLAPK-OH)	–	inactive	–
CSCC[C@H](NC(=O)[C@H](CCCCN)NC(=O)[C@@H]1C[C@@H](O)CN1C(=O)[C@H](C)NC(=O)[C@@H]1CCCN1)C(=O)N[C@@H](C)C(=O)N1CCC[C@H]1C(=O)N[C@@H](CCCCN)C(=O)O (H-PA[Hyp]KMAPK-OH)	–	inactive	–
C[C@H](NC(=O)[C@H](CC(N)=O)NC(=O)[C@H](CCCCN)NC(=O)[C@@H]1C[C@@H](O)CN1C(=O)[C@H](C)NC(=O)[C@@H]1CCCN1)C(=O)N1CCC[C@H]1C(=O)N[C@@H](CCCCN)C(=O)O (H-PA[Hyp]KNAPK-OH)	–	inactive	–
C[C@H](NC(=O)[C@@H]1CCCN1)C(=O)N1C[C@H](O)C[C@H]1C(=O)N[C@@H](CCCCN)C(=O)N1CCC[C@H]1C(=O)N[C@@H](C)C(=O)N1CCC[C@H]1C(=O)N[C@@H](CCCCN)C(=O)O (H-PA[Hyp]KPAPK-OH)	–	inactive	Activity [2]: Active; Activity [3]: inactive; Activity [5]: inactive
C[C@H](NC(=O)[C@H](CCC(N)=O)NC(=O)[C@H](CCCCN)NC(=O)[C@@H]1C[C@@H](O)CN1C(=O)[C@H](C)NC(=O)[C@@H]1CCCN1)C(=O)N1CCC[C@H]1C(=O)N[C@@H](CCCCN)C(=O)O (H-PA[Hyp]KQAPK-OH)	–	inactive	–
C[C@H](NC(=O)[C@H](CCCNC(=N)N)NC(=O)[C@H](CCCCN)NC(=O)[C@@H]1C[C@@H](O)CN1C(=O)[C@H](C)NC(=O)[C@@H]1CCCN1)C(=O)N1CCC[C@H]1C(=O)N[C@@H](CCCCN)C(=O)O (H-PA[Hyp]KRAPK-OH)	–	inactive	–
